Measurements from paper PMC10046946, “Novel Phthalic-Based Anticancer Tyrosine Kinase Inhibitors: Design, Synthesis and Biological Activity” (Current Issues in Molecular Biology, 2023).
Where “and” joins values, the source holds several entries; their conditions need not be identical. Identical values can stand only once. Like-named read-outs stand apart in the source and are kept apart here.

Tests used:
[1] = tested on: K562 (chronic myelogenous leukemia); test: MTT cell proliferation assay, K562; type: cell-based; conditions: Homo sapiens, K562, 72 h of exposition, read-out: Anti-proliferative activity IC50, K562
Protocol: (§1) Tests to determine the effects of the synthesized compounds on cell viability and the half-maximal inhibitory concentration (IC50) were performed using the MTT assay, as described in our prior work.
(§2) The target compounds 5, 6, 8–12, 14, 15, 17–22 and 24–26 were tested for antiproliferative activity against six cancer cell lines: K562 (chronic myelogenous leukemia), HL-60 (promyelocytic leukemia), MCF-7 (breast adenocarcinoma), HepG2 (human liver cancer), A549 (lung carcinoma) and OKP-GS (renal cell carcinoma). The RPMI 1788 cells (B lymphocyte, human) were used as a control to evaluate the system toxicity of the studied compounds to normal cells. Sorafenib, nilotinib and lapatinib were utilized as reference standards for comparison.

[2] = tested on: HL-60 (promyelocytic leukemia); test: MTT cell proliferation assay, HL-60; type: cell-based; conditions: Homo sapiens, HL-60, 72 h of exposition, read-out: Anti-proliferative activity IC50, HL-60
Protocol: as §1, §2

[3] = tested on: MCF-7 (breast adenocarcinoma); test: MTT cell proliferation assay, MCF-7; type: cell-based; conditions: Homo sapiens, MCF7, MCF-7, 72 h of exposition, read-out: Anti-proliferative activity IC50, MCF-7
Protocol: as §1, §2

[4] = tested on: HepG2 (human liver cancer); test: MTT cell proliferation assay, HepG2; type: cell-based; conditions: HepG2, 72 h of exposition, read-out: Anti-proliferative activity IC50, HepG2
Protocol: as §1, §2

[5] = tested on: A549 (lung carcinoma); test: MTT cell proliferation assay, A549; type: cell-based; conditions: Homo sapiens, A549, 72 h of exposition, read-out: Anti-proliferative activity IC50, A549
Protocol: as §1, §2

[6] = tested on: OKP-GS (renal cell carcinoma); test: MTT cell proliferation assay, OKP-GS; type: cell-based; conditions: 72 h of exposition, read-out: Anti-proliferative activity IC50, OKP-GS
Protocol: as §1, §2

[7] = tested on: RPMI 1788 cells (B lymphocyte, human); test: MTT cell proliferation assay, normal RPMI 1788 cells; type: cell-based; conditions: normal human lymphoblastoid cells RPMI 1788, 72 h of exposition, read-out: Anti-proliferative activity IC50, RPMI 1788
Protocol: as §1, §2

[8] = molecular target: T1, EGFR (Homo sapiens, UniProt P00533); test: ADP-Glo kinase assay, EGFR; type: biochemical
T1 construct: purchased Promega

[9] = molecular target: T2, HER2 (Homo sapiens, UniProt P04626); test: ADP-Glo kinase assay, HER2; type: biochemical
T2 construct: purchased Promega
Protocol: (§3) The ADP-Glo kinase assay (Promega, Madison, WI, USA) was used to screen compounds 5, 8–10, 14, 17, 19 and 24 for the tyrosine kinase (Kinase Selectivity Profiling System TK-1, Promega, Madison, WI, USA) and serine/threonine kinase (Kinase Selectivity Profiling System Other/CK-1, Promega, Madison, WI, USA) inhibition effects according to the manufacturer’s technical manual. The luminescence data were analyzed as described in our prior work.
(§4) The selectivity of the potential kinase inhibitor against a specific protein kinase or a specific family of kinases was investigated using the Kinase Selectivity Profiling System TK-1, Other/CK-1 and ADP-Glo™ Kinase assay kit (Promega, Madison, WI, USA).

[10] = molecular target: T3, HER4 (Homo sapiens, UniProt Q15303); test: ADP-Glo kinase assay, HER4; type: biochemical
T3 construct: purchased Promega
T3 sequence (Q15303 26-1308): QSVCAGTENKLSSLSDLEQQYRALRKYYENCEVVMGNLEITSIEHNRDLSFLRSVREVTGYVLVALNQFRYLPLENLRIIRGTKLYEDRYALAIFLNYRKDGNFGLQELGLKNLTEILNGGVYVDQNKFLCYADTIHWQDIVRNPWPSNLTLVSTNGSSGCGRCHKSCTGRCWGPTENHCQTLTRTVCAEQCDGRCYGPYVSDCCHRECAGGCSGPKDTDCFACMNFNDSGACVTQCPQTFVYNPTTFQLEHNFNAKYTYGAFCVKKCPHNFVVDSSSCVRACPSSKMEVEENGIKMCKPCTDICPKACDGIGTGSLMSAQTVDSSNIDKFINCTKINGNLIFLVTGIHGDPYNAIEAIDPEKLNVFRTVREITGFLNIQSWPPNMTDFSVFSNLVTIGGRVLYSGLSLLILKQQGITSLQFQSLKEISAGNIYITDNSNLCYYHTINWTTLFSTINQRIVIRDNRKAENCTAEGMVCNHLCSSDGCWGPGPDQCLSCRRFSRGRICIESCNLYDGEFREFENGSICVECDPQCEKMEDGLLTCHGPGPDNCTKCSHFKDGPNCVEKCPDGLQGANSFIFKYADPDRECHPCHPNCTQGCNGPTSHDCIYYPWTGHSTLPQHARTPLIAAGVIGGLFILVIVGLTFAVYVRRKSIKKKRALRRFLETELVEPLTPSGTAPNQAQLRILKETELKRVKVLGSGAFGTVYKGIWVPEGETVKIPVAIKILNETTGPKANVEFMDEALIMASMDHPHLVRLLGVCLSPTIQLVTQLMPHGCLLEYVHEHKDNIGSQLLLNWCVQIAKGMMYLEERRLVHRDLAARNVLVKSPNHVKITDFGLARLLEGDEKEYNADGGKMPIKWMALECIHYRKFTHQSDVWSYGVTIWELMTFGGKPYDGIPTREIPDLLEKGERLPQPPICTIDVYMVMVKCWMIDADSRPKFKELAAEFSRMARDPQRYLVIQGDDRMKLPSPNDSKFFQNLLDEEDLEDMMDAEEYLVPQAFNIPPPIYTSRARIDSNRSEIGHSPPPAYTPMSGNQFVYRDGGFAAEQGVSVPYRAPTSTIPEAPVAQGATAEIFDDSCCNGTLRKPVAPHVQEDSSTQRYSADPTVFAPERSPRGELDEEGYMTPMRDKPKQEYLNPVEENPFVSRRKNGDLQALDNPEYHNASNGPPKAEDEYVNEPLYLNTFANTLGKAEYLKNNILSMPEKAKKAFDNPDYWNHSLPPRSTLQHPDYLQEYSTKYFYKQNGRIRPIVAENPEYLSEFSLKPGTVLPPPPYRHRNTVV
Protocol: as §3, §4

[11] = molecular target: T4, IGF1R (insulin-like growth factor 1 receptor) (Homo sapiens, UniProt P08069); test: ADP-Glo kinase assay, IGF1R; type: biochemical
T4 construct: purchased Promega
T4 sequence (P08069 31-1367): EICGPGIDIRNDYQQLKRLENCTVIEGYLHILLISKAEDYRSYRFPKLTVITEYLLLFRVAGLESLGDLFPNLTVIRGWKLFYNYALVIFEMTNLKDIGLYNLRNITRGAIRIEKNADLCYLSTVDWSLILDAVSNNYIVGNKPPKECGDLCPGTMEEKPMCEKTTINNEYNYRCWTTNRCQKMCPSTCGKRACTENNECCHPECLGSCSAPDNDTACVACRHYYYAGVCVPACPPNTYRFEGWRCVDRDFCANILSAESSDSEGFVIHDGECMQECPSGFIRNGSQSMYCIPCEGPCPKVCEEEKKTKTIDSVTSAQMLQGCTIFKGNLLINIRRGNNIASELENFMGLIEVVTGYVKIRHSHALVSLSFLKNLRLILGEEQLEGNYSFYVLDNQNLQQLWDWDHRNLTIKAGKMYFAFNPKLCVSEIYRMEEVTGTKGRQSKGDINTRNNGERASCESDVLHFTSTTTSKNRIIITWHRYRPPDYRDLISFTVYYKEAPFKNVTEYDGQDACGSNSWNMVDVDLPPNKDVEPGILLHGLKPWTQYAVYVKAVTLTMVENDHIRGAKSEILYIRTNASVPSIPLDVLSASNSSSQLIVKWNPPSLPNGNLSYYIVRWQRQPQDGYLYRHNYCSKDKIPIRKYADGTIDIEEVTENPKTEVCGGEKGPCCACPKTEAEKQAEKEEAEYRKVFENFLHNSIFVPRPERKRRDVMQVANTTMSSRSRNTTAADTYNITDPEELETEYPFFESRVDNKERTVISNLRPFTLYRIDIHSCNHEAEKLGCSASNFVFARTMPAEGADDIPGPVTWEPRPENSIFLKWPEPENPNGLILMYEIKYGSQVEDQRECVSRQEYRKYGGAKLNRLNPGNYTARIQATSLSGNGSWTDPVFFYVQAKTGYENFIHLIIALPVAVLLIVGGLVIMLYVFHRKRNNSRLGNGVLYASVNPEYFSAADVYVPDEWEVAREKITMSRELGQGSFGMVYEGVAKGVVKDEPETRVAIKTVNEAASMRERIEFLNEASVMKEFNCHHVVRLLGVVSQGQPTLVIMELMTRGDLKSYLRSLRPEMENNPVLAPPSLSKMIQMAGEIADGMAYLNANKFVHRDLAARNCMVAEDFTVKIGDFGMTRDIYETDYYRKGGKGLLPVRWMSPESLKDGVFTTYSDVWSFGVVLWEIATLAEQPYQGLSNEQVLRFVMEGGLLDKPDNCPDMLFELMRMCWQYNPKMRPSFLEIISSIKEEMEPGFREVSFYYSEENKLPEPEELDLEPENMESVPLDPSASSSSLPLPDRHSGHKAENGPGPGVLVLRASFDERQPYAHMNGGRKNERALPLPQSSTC
Protocol: as §3, §4

[12] = molecular target: T5, InsR (insulin receptor) (Homo sapiens, UniProt P06213); test: ADP-Glo kinase assay, InsR; type: biochemical
T5 construct: purchased Promega
Protocol: as §3, §4

[13] = molecular target: T6, KDR (VEGFR-2) (Homo sapiens, UniProt P35968); test: ADP-Glo kinase assay, KDR; type: biochemical
T6 construct: purchased Promega
T6 sequence (P35968 20-1356): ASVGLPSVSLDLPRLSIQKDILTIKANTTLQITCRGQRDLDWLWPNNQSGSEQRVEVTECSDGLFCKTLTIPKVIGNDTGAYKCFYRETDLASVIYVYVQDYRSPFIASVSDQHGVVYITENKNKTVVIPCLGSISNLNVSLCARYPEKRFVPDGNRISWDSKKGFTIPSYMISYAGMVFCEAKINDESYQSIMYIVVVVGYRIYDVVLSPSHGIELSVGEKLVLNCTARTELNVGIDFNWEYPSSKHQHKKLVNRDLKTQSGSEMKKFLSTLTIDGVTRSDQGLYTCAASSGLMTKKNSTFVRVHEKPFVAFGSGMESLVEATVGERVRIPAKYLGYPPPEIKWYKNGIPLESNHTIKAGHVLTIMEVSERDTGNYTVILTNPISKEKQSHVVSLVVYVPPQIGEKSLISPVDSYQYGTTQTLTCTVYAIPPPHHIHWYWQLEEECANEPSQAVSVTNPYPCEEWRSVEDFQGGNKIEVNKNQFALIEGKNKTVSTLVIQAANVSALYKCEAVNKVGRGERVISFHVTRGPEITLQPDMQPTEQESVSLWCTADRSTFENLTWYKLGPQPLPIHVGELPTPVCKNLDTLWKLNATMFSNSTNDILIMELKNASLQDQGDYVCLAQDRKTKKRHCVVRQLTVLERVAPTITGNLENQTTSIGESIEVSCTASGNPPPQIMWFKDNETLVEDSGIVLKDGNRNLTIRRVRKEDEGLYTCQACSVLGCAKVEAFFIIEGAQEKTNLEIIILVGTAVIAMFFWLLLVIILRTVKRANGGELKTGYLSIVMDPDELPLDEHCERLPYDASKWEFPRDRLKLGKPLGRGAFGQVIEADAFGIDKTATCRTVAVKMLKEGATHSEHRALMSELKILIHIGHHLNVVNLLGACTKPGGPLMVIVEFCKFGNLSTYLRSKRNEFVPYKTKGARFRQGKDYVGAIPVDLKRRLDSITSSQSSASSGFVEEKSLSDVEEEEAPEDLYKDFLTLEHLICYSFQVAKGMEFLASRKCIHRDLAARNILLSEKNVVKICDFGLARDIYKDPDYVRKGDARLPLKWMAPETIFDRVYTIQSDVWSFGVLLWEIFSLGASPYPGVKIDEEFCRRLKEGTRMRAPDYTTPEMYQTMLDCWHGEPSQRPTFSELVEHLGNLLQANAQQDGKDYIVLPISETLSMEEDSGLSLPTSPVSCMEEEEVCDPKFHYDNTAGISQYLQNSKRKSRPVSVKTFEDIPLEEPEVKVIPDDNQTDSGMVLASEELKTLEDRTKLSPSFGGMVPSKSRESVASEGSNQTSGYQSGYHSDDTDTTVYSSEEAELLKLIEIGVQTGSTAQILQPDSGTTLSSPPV

[14] = molecular target: T7, PDGFRα (Homo sapiens, UniProt P16234); test: ADP-Glo kinase assay, PDGFRα; type: biochemical
T7 construct: purchased Promega
Protocol: as §3, §4

[15] = molecular target: T8, PDGFRβ (Homo sapiens, UniProt P09619); test: ADP-Glo kinase assay, PDGFRβ; type: biochemical
T8 construct: purchased Promega
T8 sequence (P09619 33-1106): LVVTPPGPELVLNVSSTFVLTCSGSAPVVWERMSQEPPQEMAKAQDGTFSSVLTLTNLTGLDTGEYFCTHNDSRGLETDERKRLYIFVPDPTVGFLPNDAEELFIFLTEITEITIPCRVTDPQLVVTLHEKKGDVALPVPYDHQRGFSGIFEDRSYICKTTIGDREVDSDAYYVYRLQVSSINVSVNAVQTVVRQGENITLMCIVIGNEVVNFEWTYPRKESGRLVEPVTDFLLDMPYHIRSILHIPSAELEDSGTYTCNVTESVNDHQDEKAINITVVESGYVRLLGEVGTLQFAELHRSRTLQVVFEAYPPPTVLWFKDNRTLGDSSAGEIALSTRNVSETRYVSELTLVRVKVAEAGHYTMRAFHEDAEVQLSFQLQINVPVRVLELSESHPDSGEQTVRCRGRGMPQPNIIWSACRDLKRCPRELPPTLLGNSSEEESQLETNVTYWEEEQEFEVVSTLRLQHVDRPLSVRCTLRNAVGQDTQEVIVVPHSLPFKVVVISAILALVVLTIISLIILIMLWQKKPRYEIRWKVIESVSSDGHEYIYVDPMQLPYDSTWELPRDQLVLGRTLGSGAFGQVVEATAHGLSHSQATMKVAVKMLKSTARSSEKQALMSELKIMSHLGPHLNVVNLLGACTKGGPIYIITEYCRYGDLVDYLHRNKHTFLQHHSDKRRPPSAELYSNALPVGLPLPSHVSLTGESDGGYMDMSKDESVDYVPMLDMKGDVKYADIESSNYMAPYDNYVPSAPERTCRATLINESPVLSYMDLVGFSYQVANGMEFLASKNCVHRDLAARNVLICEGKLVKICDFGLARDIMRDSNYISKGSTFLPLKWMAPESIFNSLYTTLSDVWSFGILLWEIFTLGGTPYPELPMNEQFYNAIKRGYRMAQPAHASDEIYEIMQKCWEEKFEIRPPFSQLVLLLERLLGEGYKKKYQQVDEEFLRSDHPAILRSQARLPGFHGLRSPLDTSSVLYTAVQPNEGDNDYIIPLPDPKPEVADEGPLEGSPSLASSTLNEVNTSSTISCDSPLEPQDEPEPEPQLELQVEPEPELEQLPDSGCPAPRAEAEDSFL
Protocol: as §3, §4

[16] = molecular target: T9, Aurora A (Homo sapiens, UniProt O14965); test: ADP-Glo kinase assay, Aurora A; type: biochemical
T9 construct: purchased Promega
T9 sequence (O14965 1-403): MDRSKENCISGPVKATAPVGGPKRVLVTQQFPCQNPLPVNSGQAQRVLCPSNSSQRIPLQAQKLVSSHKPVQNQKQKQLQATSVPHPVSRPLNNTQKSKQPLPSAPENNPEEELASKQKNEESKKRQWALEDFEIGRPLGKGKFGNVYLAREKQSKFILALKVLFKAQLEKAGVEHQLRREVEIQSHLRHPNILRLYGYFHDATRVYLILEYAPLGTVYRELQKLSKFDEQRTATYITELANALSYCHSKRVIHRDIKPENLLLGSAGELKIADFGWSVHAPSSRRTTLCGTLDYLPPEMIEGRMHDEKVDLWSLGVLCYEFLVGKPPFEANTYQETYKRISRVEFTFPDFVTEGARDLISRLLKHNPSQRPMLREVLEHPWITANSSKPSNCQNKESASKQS
Protocol: as §3, §4

[17] = molecular target: T10, Aurora B (Homo sapiens, UniProt Q96GD4); test: ADP-Glo kinase assay, Aurora B; type: biochemical
T10 construct: purchased Promega
Protocol: as §3, §4

[18] = tested on: K562 cells; test: Cell cycle analysis (propidium iodide, flow cytometry); type: cell-based; conditions: 48 h
Protocol: Tumor cells were seeded on a 6-well plate at a density of 400,000 per well for K562. Test compounds 5, 14 and 15 were added at concentrations of 1, 5 and 10 μM in duplicate for 48 h. The methodology and analysis of the obtained data were performed as described in our prior work.
As shown above, compounds 5, 14 and 15 had significant antiproliferative activities, which is why their influences on the cell cycle and apoptosis level were determined, with the aim of understanding whether these effects are cytostatic or cytotoxic. In the cell cycle experiments, K562 cells were used. […] For the determination of changes in the distribution of cells in the phases of the cell cycle, the widely employed method of staining the cells with propidium iodide was used.

[19] = tested on: K562 cells; test: Annexin V-FITC/PI apoptosis assay; type: cell-based; conditions: 48 h
Protocol: K562 tumor cells were plated on a 6-well plate at a density of 400,000 per well. Test compounds 5, 14 and 15 were added at concentrations of 1, 5 and 10 μM in duplicate for 48 h. The methodology and analysis of the obtained data were performed as described in our prior work.
The effects of compounds 5, 14 and 15 on cell apoptosis were examined using the Annexin V-FITC Kit (Beckman Coulter, Brea, CA, USA) according to the protocols provided. The Annexin V-FITC Kit is an apoptosis detection kit based on the binding properties of annexin V to phosphatidylserine (PS) and on the DNA intercalating capability of propidium iodide (PI). K562 cells were treated with compound 5, 14 and 15 at 1, 5 and 10 μM for 48 h, after which annexin V/PI binding was measured by flow cytometry.

[20] = tested on: K562 cell line; test: ROS determination (DCFH-DA, flow cytometry); type: cell-based; conditions: 48 h
Protocol: The redox status was assessed using the K562 cell line. […] Then, the cells were washed to remove the 2′,7′-dichlorodihydrofluorescein diacetate by centrifugation at 1000 rpm for 5 min. The measurements were conducted using a Cytomics FC500 Beckman Coulter flow cytometer (FL1 channel for DCF).

IC50 [1] [µM] | IC50 [2] [µM] | IC50 [3] [µM] | IC50 ([4]; Homo sapiens, HepG2, 72 h) [µM] | IC50 [5] [µM] | IC50 [6] [µM] | inhibition at 10 µM [8] [%] | inhibition at 10 µM [9] [%] | inhibition at 10 µM [10] [%] | inhibition at 10 µM [11] [%] | inhibition at 10 µM [12] [%] | inhibition at 10 µM [13] [%] | inhibition at 10 µM [14] [%] | inhibition at 10 µM [15] [%] | inhibition at 10 µM [16] [%] | inhibition at 10 µM [17] [%] | Structure (SMILES) | IC50 [7] [µM] | Apoptosis, % (cell cycle analysis) ([18]; K562, 1 µM) [%] | G1, % ([18]; K562, 1 µM) [%] | G2/M, % ([18]; K562, 1 µM) [%] | also measured
7.71 ± 2.84 | 32.5 ± 1.5 | 27.3 ± 0.16 | 44.1 ± 4.19 | > 50 | > 50 | 21 | 14 | 0 | 0 | 0 | 26 | 24 | 23 | 0 | 7 | Cc1cn(-c2cc(NC(=O)c3cccc(C(=O)N4CCN(C(=O)c5ccccc5F)CC4)c3)cc(C(F)(F)F)c2)cn1 [Compound 14, 3-(4-(2-Fluorobenzoyl)piperazine-1-carbonyl)-N-(3-(4-methyl-1H-imidazol-1-yl)-5-(trifluoromethyl)phenyl)benzamide] | 26.6 ± 2.31 | 14.28 | 32.65 | 46.95 | S, % ([18]; K562, 1 µM): 20.41%; Apoptosis, % (cell cycle analysis) ([18]; K562, 5 µM): 25.10%; G1, % ([18]; K562, 5 µM): 27.58%; G2/M, % ([18]; K562, 5 µM): 55.16%; S, % ([18]; K562, 5 µM): 17.25%; Apoptosis, % (cell cycle analysis) ([18]; K562, 10 µM): 38.02%; G1, % ([18]; K562, 10 µM): 31.21%; G2/M, % ([18]; K562, 10 µM): 51.08%; S, % ([18]; K562, 10 µM): 17.71%; normal live cells (living cells) ([19]; K562, 1 µM): 83.95%; normal live cells (living cells) ([19]; K562, 5 µM): 65.68%; normal live cells (living cells) ([19]; K562, 10 µM): 56.83%; ROS Level, % of Control ([20]; K562, 5 µM): 92.84 % of Control; ROS Level, % of Control ([20]; K562, 10 µM): 76.96 % of Control; ROS Level, % of Control ([20]; K562, 20 µM): 71.90 % of Control; melting point: 135 to 138 °C
3.42 ± 0.78 | 7.04 ± 0.29 | 4.91 ± 1.27 | 8.84 | > 50 | 17.8 ± 2.13 | 0 | 33 | 0 | 0 | 0 | 18 | 73 | 18 | 0 | 0 | Cc1cn(-c2cc(NC(=O)c3cccc(C(=O)Nc4cccc(C(F)(F)F)c4)c3)cc(C(F)(F)F)c2)cn1 [Compound 5, N1-(3-(4-methyl-1H-imidazol-1-yl)-5-(trifluoromethyl)phenyl)-N3-(3-(trifluoromethyl)phenyl)isophthalamide] | 2.86 ± 0.09 | 14.56 | 37.92 | 45.08 | IC50 [4]: 7.84 ± 2.61 µM; S, % ([18]; K562, 1 µM): 17.0% and 17.01%; Apoptosis, % (cell cycle analysis) ([18]; K562, 5 µM): 37.20%; G1, % ([18]; K562, 5 µM): 31.77%; G2/M, % ([18]; K562, 5 µM): 50.09%; S, % ([18]; K562, 5 µM): 18.14%; Apoptosis, % (cell cycle analysis) ([18]; K562, 10 µM): 53.50%; G1, % ([18]; K562, 10 µM): 29.86%; G2/M, % ([18]; K562, 10 µM): 38.0% and 38.08%; S, % ([18]; K562, 10 µM): 32.05%; normal live cells (living cells) ([19]; K562, 1 µM): 79.72%; early apoptotic cells ([19]; K562, 5 µM): 29.07%; late apoptotic cells ([19]; K562, 5 µM): 19.93%; normal live cells (living cells) ([19]; K562, 5 µM): 48.87%; necrotic cells ([19]; K562, 10 µM): 16.38%; normal live cells (living cells) ([19]; K562, 10 µM): 38.66%; ROS Level, % of Control ([20]; K562, 5 µM): 76.76 % of Control; ROS Level, % of Control ([20]; K562, 10 µM): 64.66 % of Control; ROS Level, % of Control ([20]; K562, 20 µM, 20 µM): 62.9 % of Control
